Results taken from patent US8795734B2, “Hydrophobic nanotubes and nanoparticles as transporters for the delivery of drugs into cells” (The Board of Trustees of the Leland Stanford Junior …, priority 2005, dated 2014).

Columns and labels:
CXCR4 = experiment: Silencing by PL-PEG-s-s-siRNA conjugates of different nanoparticles; type: cell-based
Text: Conjugates as prepared according to Examples 24-27 were made with nanoparticles other than SWNTs. It was shown that MWNTs, carbon black nanoparticles can all be used to make noncovalent PL-PEG-s-s-siRNA conjugates. […] Referring to FIG. 10A, the silencing effect for these conjugates is shown with reference to SWNT conjugates. The experiments were done with the following:
Referring now to FIG. 10B, CXCR4 silencing is shown for different nanoparticles. Polystyrene spheres (PS, 20 nm and 50 nm) were also used to make noncovalent PL-PEG-s-s-siRNA conjugates. […] The data in FIG. 10B below compares the RNAi effects of PS delivery vs. nanotube delivery.

HL60 cells = experiment: Cellular uptake of SWNT conjugates by confocal microscopy and flow cytometry; type: cell-based, human; conditions: protein alone, versus untreated cells
Protocol: HL60 and Jurkat cells were both grown in RPMI-1640 cell culture medium (Invitrogen) supplemented with 10% fetal bovine serum (FBS). Prior to incubation, the cells were collected by centrifugation and resuspended in RPMI medium at a cell density of 3μ 10^6 cells/mL. Incubation of cells in a nanotube solution was done by mixing 100 μL of the cell suspension with 100 μL of a SWNT solution (2, 3 or 4) at 37° C. unless otherwise stated. The concentration of SWNT in the incubation solution was ˜0.05 mg/mL unless otherwise stated, and the incubation duration was always 1 h in 5% CO2 atmosphere except for time dependent incubation experiments. After incubation, the cells were washed and collected by centrifugation twice, and resuspended in RPMI medium.
FM4-64 (Molecular Probes Inc.) is a classical marker used for staining membrane and endosomes. The cell incubations were carried out under similar conditions as discussed in the previous section, except that FM 4-64 (2% v/v) was added to the incubation mixture. […]
Also, cells were analyzed by a Becton-Dickinson FACScan instrument after incubation in various nanotube solutions. […] We carried out dual detection of red and green fluorescence with the cells. The data presented here represent the mean green fluorescence obtained with a population of 10,000 live cells.

HL60 and HeLa cells = experiment: Internalization of SWNT-protein, SWNT-DNA and SWNT-SS-DNA conjugates (fluorescence confocal, flow cytometry); type: cell-based, human
Protocol: Two cell lines, human promyelomonocytic HL60 cells and cervical cancer HeLa cells were used in the current work. HL60 were cultured in RPMI medium supplemented with 10% fetal bovine serum (FBS), while HeLa cells were cultured in DMEM medium supplemented with 10% FBS and 1% penicillin-streptomycin. The cells were suspended in phosphate buffered saline (PBS), mixed with a SWNT conjugate and incubated for 1-3 h at 37° C., except for the low temperature incubations. The concentration of SWNTs in the incubation solution was typically ˜2.5 mg/L as measured by UV-vis-NIR absorption spectrum, and the cell density was ˜2×10^5 cells/well. Adherent HeLa cells were either trypsinized to detach from the Petri dishes to form a suspension or were seeded overnight in chambered cover-slides.
Both the protein and DNA molecules were labeled with a fluorescent tag (by either Cy3 or Alexa Fluor 488) to allow for confocal fluorescence imaging and flow cytometry analysis.
We carried out incubations of protein-SWNT and DNA-SWNT with HL60 and HeLa cells at 4° C. and with cells pretreated with NaN3.

HL-60 cells [1] = experiment: Cell proliferation CellTiter 96 MTS assay; type: cell-based, human; conditions: 2 h incubation, monitored up to 5 days versus untreated cells
Protocol: After incubation with the SWNT-streptavidin conjugate (unlabeled), HL-60 cells were washed and resuspended in RPMI media. The cells were plated in a 6-well plate at a density of ˜8×10^3 cells/well. At 24 h interval, Celltiter96 reagent (Promega) was added to one of the wells and allowed to incubate for ˜2-3 h at 37° C. and 5% CO2. The CellTiter 96 assay uses the tetrazolium compound (3-(4,5-dimethylthiazol-2-yl)-5-(3-carboxymethoxyphenyl)-2-(4-sulfophenyl)-2H-tetrazolium, inner salt; MTS) and the electron-coupling reagent, phenazine methosulfate (PMS). […] The measurement of the absorbance of the formazan can be carried out at 490 nm. […]
We used the CellTiter 96 MTS assay (Promega) to examine the proliferation of HL60 cells following exposure to SWNT-protein conjugates. […] The absorbance of the formazan salt can be measured at 490 nm and correlates to the number of cells in the suspension. The absorbance from the cells incubated with the SWNT-protein conjugates was measured over a period of 5 days in parallel with control cells never exposed to any nanotubes. The absorbance detected by a UV-VIS spectrophotometer was very similar for cells with and without exposure to SWNTs over the 5-day monitoring period.
Cells were incubated with SWNT-SA conjugate (without fluorescent label) for 2 hrs. […] The absorbance is then taken at 490 nm.

HL-60 cells [2] = experiment: Cell viability study with PEG-phospholipid functionalized SWNTs (propidium iodide); type: cell-based
Protocol: HL-60 cells were incubated and then washed to remove excess nanotubes, as described above. The cells were then placed into the incubator for an additional 24 h with the RPMI medium. The cells were then examined through a confocal microscope, after being stained with 2% (v/v) of propidium iodide (Biochemika), a common stain for dead cells. Control experiments were carried out for cells without exposure to nanotubes.
The confocal images (not shown) of HL-60 cells were obtained (a) untreated (b) treated with FTIC-PEG-PE modified CNTs for 90 min at 37° C. Cells were washed and allowed to incubate for an additional 24 h prior to confocal analysis. Propidium iodide is added to the suspension in order to stain for dead cells (red cells in the images).

NIH-3T3 cells = experiment: Apoptosis assay by Annexin V-FITC staining; type: cell-based
Text: We use Annexin V labeled with fluorescein isothiocyanate (Molecular Probes) as an early stage apoptosis marker. One of the earliest indications of apoptosis is the translocation of the membrane phospholipid phosphatidylserine (PS) from the inner to the outer leaflet of the plasma membrane. Once exposed to the extracellular environment, binding sites on PS become available for Annexin V, a ˜35 kDa Ca^2+-dependent, phospholipid binding protein with a high affinity for PS (Pigault, C.; Follenius-Wund, A.; Schmutz, M.; Freyssinet, J.; Brisson, A. J. Mol. Biol. 1994, 236, 199) (also see Sigma Technical Bulletin number MB-390). In this study, NIH 3T3 cells were plated and incubated with SWNT-cytochrome c as described above. […] The cells were co-stained with propidium iodide and immediately analyzed by flow cell cytometry. Apoptosis data in FIG. 3 were for cells free of PI-staining recorded ˜4-5 h after exposure to chloroquine with or without (for control) cyt c-SWNT conjugates.
HeLa (human cervix carcinoma) and NIH-3T3 cell lines, shown previously to undergo cyt-c-induced apoptosis were investigated in this study for intracellular transporting of cyt-c with SWNTs and for apoptosis assay (Cai). Unlike the proteins used for other uptake experiments, cyt-c used for binding to SWNTs and transported inside cells for apoptosis assay were free of any fluorescence label. […]

[3] = test system: endosomal compartments of cells; experiment: Endosome release of protein-SWNT conjugates by chloroquine (confocal); type: cell-based
Text: A.; Murthy, N.; Press, O. W.; Tirrell, D. A.; Hoffman, A. S.; Stayton, P. S. Bioconj. Chem. 1999, 10, 401; Cho, Y. W.; Kim, J. D.; Park, K. J. Pharm. Pharmacol. 2003, 55, 721). These methods make use of the pH difference across the endosome membrane and the pH response of the polymers or amines. For SWNT transporters, similar complexation schemes can be developed to afford nanotube transporters containing an endosome-releasing agent. While such an effort warrants detailed investigations separately from the current work, we describe here the release of internalized protein-SWNT conjugates from the endosomal compartments by adding chloroquine to cell medium during incubation of cells in protein-SWNT conjugates. […] The resulting osmotic pressure can lead to swelling of the endosomal compartments and eventual rupture (Ogris, M.; Steinlein, P.; Kursa, M.; Mechtler, K.; Kircheis, R.; Wagner, E. Gene Ther. 1998, 5, 1425).
In experiments carried out with and without chloroquine, we noticed a difference in the distribution of the detected fluorescence inside the cells. […] FIG. 2 (a) Cells are incubated with (a) SWNT-CytC conjugate and (b) SWNT-CytC+100 μM of chloroquine at 37° C. and 5% CO2 Confocal images are taken immediately after incubation and washing. […]

In the case of Carbon black, the “cell entry and siRNA delivery” value (CXCR4) is reported as “able to enter cells and deliver siRNA into cells” and the “silencing effect compared to SWNT conjugates (FIG. 10A)” value (CXCR4; ~20 nM nanoparticle) is reported as “greater silencing efficiency at day 3”.

“SA: Fluoresceinated streptavidin protein alone, MW ~60 kD” was tested, and the “fluorescence of cells by flow cytometry” value (HL60 cells) was “only slightly greater than the background fluorescence of untreated cells”.

In the case of “SWNT-protein: Fluorescently labeled BSA non-specifically bound to oxidized Hipco SWNTs”, the cellular internalization (HL60 and HeLa cells; 1-3 h at 37 °C) is reported as “cellular internalization” and the “level of fluorescence in the cells” value (HL60 and HeLa cells; 4 °C incubation and NaN3 pretreatment (ATP depletion)) is reported as “considerably lower”.

With “SWNT-SA conjugate: Streptavidin without fluorescent label non-specifically bound to oxidized SWNTs” the “cell proliferation (absorbance at 490 nm)” value (HL-60 cells [1]) was “does not show any deviation from the proliferation of untreated cells”.

For Tween-20, the “effect of surfactant exposure on cells” value (HL-60 cells [2]) was “Cells tended to die”.

For “cyt-c-SWNT: Cytochrome c (12 kD) non-covalently bound to oxidized SWNTs”, the “percentage of apoptosed cells versus cyt-c alone” value (NIH-3T3 cells; Annexin V-FITC staining) was “significantly higher percentages of apoptosed cells”, the “degree of apoptosis with versus without chloroquine” value (NIH-3T3 cells; in the presence of chloroquine) was “Higher degrees of apoptosis” and the “distribution of fluorescence inside the cells” value ([3]; 100 μM chloroquine) was “diffuse and uniform”. For the same substance, the “distribution of fluorescence inside the cells” value ([3]; absence of chloroquine) was “discrete punctate fluorescence spots”.
